Source: PubChem BioAssay (NCI)
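Briefly, cells in 96-well plates were exposed to five compound concentrations for 48 h, and endpoints were estimated by linear interpolation. TGI marks complete inhibition of growth.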

Columns and labels:
Assay in all cases: NCI tumour cell line growth inhibition, 48 h
HCC-2998 colon = system: HCC-2998 colon
UO-31 renal = system: UO-31 renal
T-47D breast = system: T-47D breast
U251 CNS = system: U251 CNS
OVCAR-8 ovarian = system: OVCAR-8 ovarian
MDA-MB-435 = system: MDA-MB-435
PC-3 prostate = system: PC-3 prostate
CCRF-CEM leukemia = system: CCRF-CEM leukemia
KM12 colon = system: KM12 colon
HOP-62 NSCLC = system: HOP-62 NSCLC
OVCAR-4 ovarian = system: OVCAR-4 ovarian
UACC-62 melanoma = system: UACC-62 melanoma
RPMI-8226 leukemia = system: RPMI-8226 leukemia

SMILES	TGI (HCC-2998 colon) [µM]	TGI (UO-31 renal) [µM]	TGI (T-47D breast) [µM]	TGI (U251 CNS) [µM]	TGI (OVCAR-8 ovarian) [µM]	TGI (MDA-MB-435) [µM]	TGI (PC-3 prostate) [µM]	TGI (CCRF-CEM leukemia) [µM]	TGI (KM12 colon) [µM]	TGI (HOP-62 NSCLC) [µM]	TGI (OVCAR-4 ovarian) [µM]	TGI (UACC-62 melanoma) [µM]	TGI (RPMI-8226 leukemia) [µM]
Cc1cn(Cc2ccccc2CCl)c(=O)[nH]c1=O	28.8	24.8	44.8	21.4	29.2	29	44.2	> 100	37.4	35.3	> 100	28.2	–
O=C(CC(C(=O)c1ccoc1)c1ccco1)c1ccco1 (centres undefined)	> 100	> 100	> 100	> 100	> 100	> 100	–	> 100	> 100	> 100	> 100	> 100	> 100
COC(=O)c1c(C)cccc1/C=C1\Cc2cc(C)cc(C)c2C1=O	> 100	> 100	> 100	48.2	> 100	–	> 100	> 100	> 100	37.7	51.4	48.6	> 100
CCC1C(c2cc(OC)c(OC)c(OC)c2)c2cc3c(cc2OC1N1CCOCC1)OCO3 (centres undefined)	–	17.5	61.8	–	17.6	–	14.1	–	–	20.6	14.6	24.7	–
CC1(C)Oc2ccc3c(=O)cc(-c4ccc(F)cc4)oc3c2C1C(=O)O (centres undefined)	> 100	–	> 100	> 100	> 100	> 100	> 100	> 100	–	> 100	–	> 100	–
C[C@H](O)C1CC(Cn2nnc3c(N)ncnc32)C1(C)C (some centres undefined)	> 100	> 100	> 100	> 100	–	> 100	> 100	> 100	> 100	> 100	> 100	> 100	–
CN(CCc1ccc(N)cc1)[C@H]1CCCC[C@H]1N1CCCC1	> 100	> 100	> 100	> 100	> 100	> 100	> 100	–	> 100	> 100	> 100	> 100	> 100
C1=C\CCCCN2C[C@H]3CCCC/C=C\CCCCN4CC[C@@H]([C@H](CCCCCC/1)C4)[C@H](C3)C2	2.01	3.16	4.6	3.41	7.74	3.8	14.5	–	4.03	5	6.11	3.67	3.56
CC(C)C1OC(=O)/C=C/C=C/C=C/C=C/C=C/CC(O)CC(O)CC(O)CC(O)CC(O)CC(O)CC(O)CC(O)/C=C/C1C (centres undefined)	> 100	> 100	–	> 100	> 100	> 100	> 100	> 100	> 100	> 100	> 100	–	> 100
c1cc2c(c(-c3c4ccccc4nc4ccccc34)c1)CC1(CC2)OCCO1	> 100	> 100	> 100	> 100	> 100	> 100	> 100	–	> 100	> 100	> 100	–	> 100
COc1cc2c(c(OC)c1OC)-c1ccc(SC)cc1[C@H](OC(=O)c1ccccc1)CC2	11.7	> 100	> 100	–	> 100	> 100	–	> 100	> 100	> 100	> 100	> 100	–
CC1(C)CC(=O)c2c(nc3ccc4ccccc4c3c2-c2ccc(NC(=O)CCC(=O)Nc3ccc(-c4c5c(nc6ccc7ccccc7c46)CC(C)(C)CC5=O)cc3)cc2)C1	–	> 100	> 100	> 100	> 100	> 100	> 100	> 100	> 100	> 100	–	–	> 100
COC(=O)c1c(C)cccc1CC1Cc2c(C)cccc2C1=O (centres undefined)	> 100	71	> 100	> 100	> 100	65.1	> 100	90.2	73.2	> 100	> 100	89.9	–
N#CC1(C#N)NC(c2ccsc2)C(C#N)(C#N)NC1c1ccsc1 (centres undefined)	> 100	> 100	–	> 100	> 100	> 100	> 100	> 100	> 100	> 100	> 100	> 100	> 100
NC(=O)N1N=C2c3ccccc3SC[C@H]2[C@@H]1c1ccccc1	> 100	82.9	–	50.4	65.9	–	–	70.7	–	65.6	73.4	–	87.5
COc1ccc(CC2NC(=O)/C=C/CC(C(C)C3OC3c3ccccc3)OC(=O)C(CC(C)C)OC(=O)C(C)CNC2=O)cc1Cl (centres undefined)	0.00259	–	–	> 0.1	> 0.1	1.58e-05	> 0.1	–	> 0.1	> 0.1	> 0.1	–	> 0.1
O=c1[nH]nc(Cc2ccccc2)n1Nc1ccccc1	> 100	> 100	–	> 100	> 100	> 100	> 100	> 100	> 100	> 100	> 100	> 100	> 100
O=C(CSCC(=O)N/N=C\c1ccc(-c2ccccc2)cc1)N/N=C\c1ccc(-c2ccccc2)cc1	–	> 100	> 100	31.5	58.2	46.1	88.1	–	49.2	51.9	46.5	62.4	–
COc1cc2c(cc1OC)CC(N=[N+]=[N-])c1cc(OC)c(OC)cc1/C=C\2 (centres undefined)	> 100	> 100	> 100	> 100	55.8	> 100	> 100	–	> 100	> 100	> 100	> 100	> 100
